Data published in article PMC10672575, “The Polyketides with Antimicrobial Activities from a Mangrove Endophytic Fungus Trichoderma lentiforme ML-P8-2” (Marine Drugs, 2023).
Converted amounts (≈) assume the structure as drawn.

How the values were obtained:
Staphylococcus aureus = test: Antibacterial MIC, serial dilution in 96-well plates
Experimental: (§1) All measurements were conducted in triplicate. Ampicillin and ketoconazole were applied as positive controls for antibacterial and antifungal assays, respectively, and DMSO was utilized as a blank control.

Pseudomonas aeruginosa = test: as above
Experimental: as §1

[1] = test system: methicillin-resistant Staphylococcus aureus (MRSA); test: as above
Experimental: as §1

Penicillium italicum = test: Antifungal MIC, serial dilution in 96-well plates
Salmonella typhimurium = test: Antibacterial MIC, serial dilution in 96-well plates; conditions: Salmonella enterica
Experimental: as §1

Bacillus subtilis = test: as above
Experimental: as §1

AChE = AChE (Homo sapiens, UniProt P22303); test: biochemical; conditions: average of two independent experiments; read-out: IC50 for AChE inhibitory activities
Sequence of AChE (P22303 32-614): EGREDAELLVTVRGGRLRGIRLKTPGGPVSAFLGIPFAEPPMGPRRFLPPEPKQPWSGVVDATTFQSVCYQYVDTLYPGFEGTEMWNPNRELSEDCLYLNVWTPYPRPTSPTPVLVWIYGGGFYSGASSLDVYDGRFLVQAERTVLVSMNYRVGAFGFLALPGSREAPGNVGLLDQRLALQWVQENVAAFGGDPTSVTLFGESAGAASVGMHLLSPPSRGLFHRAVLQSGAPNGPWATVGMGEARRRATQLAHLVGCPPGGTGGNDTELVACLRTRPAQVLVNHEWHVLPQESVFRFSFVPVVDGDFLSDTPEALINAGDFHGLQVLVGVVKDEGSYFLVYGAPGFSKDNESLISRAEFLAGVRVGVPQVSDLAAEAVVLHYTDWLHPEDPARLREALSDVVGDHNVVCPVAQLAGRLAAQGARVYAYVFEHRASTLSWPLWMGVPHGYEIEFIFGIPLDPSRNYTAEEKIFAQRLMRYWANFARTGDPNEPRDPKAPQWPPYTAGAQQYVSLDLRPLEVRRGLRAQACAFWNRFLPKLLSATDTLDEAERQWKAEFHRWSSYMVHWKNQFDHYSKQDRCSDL
Experimental: Donepezil hydrochloride was taken as a positive control. All measurements were conducted in triplicate from two independent experiments. The reported IC50 was the average value of two independent experiments.

Candida albicans = test: Antifungal MIC, serial dilution in 96-well plates
Experimental: as §1

Cytotoxicity, MTT assay = assay type: cell-based; conditions: human, A549 lung cancer cells
Experimental: The cytotoxicities of compounds 1–10 and eujavanicol A on cells were assessed using MTT assay as described previously. Six cell lines were used, MDA-MB-435 (breast cancer cells), MDA-MB-231 (breast cancer cells), HCT116 (colon cancer cells), A549 (lung cancer cells), SNB19 (glioma cells), and PC3 (prostate cancer cells), which were acquired from Fu Erbo Biotechnology Co., Ltd. (Guangzhou, China).

SMILES	MIC (Staphylococcus aureus) [µM]	MIC (Pseudomonas aeruginosa) [µM]	MIC [1] [µM]	MIC (Penicillium italicum) [µM]	MIC (Salmonella typhimurium) [µM]	MIC (Bacillus subtilis) [µM]	IC50 (AChE) [µM]	MIC (Candida albicans) [µM]	IC50 (Cytotoxicity, MTT assay) [µM]
COc1cc(O)c2c(=O)c(CO)c(C)oc2c1 [Compound 3, 5-hydroxy-3-(hydroxymethyl)-7-methoxy-2-methyl-4H-chromen-4-one]	> 100	> 100	> 100	> 100	> 100	> 100	20.6 ± 0.3	25 (≈ 5.91 µg/mL)	
CC[C@@H](C)[C@H]1C=C[C@H]2[C@H](O)[C@H](OC(=O)/C=C(\C)CC(=O)O)C[C@@H](C)[C@@H]2[C@@]1(C)C(=O)CCO [Compound 7, trichoharzin]	> 100	> 100	> 100	12.5 (≈ 5.63 µg/mL)	> 100	> 100	38.3 ± 0.4	50 (≈ 22.5 µg/mL)	
CC[C@@H](C)[C@H]1C=C[C@H]2[C@H](O)[C@H](OC(=O)C/C(C)=C\C(=O)O)C[C@@H](C)[C@@H]2[C@@]1(C)C(=O)CCO [Compound 8, tandyukisin D]	> 100	50 (≈ 22.5 µg/mL)	> 100	12.5 (≈ 5.63 µg/mL)	50 (≈ 22.5 µg/mL)	> 100	77.9 ± 1.7	50 (≈ 22.5 µg/mL)	
CCC(C)C1C=CC2C(O)C(OC(=O)C=C(C)CC(=O)O)CC(C)C2C1(C)C(=O)CCO (centres unmarked) [Compound 6, Tandyukisin J]	> 100	> 100	> 100	6.25 (≈ 2.82 µg/mL)	> 100	> 100	40.2 ± 0.7	25 (≈ 11.3 µg/mL)	
CC[C@@H](C)[C@H]1C=C[C@H]2[C@H](O)[C@H](OC(=O)C/C(C)=C/C(=O)O)C[C@@H](C)[C@@H]2[C@@]1(C)C(=O)CCO [Compound 9, tandyukisin G]	50 (≈ 22.5 µg/mL)	50 (≈ 22.5 µg/mL)	> 100	6.25 (≈ 2.82 µg/mL)	> 100	> 100	43.6 ± 0.4	25 (≈ 11.3 µg/mL)	
CC[C@@H](C)[C@H]1C=C[C@H]2[C@H](O)[C@H](O)C[C@@H](C)[C@@H]2[C@@]1(C)C(=O)CCO [Eujavanicol A, eujavanicol A]	> 100	> 100	> 100	25 (≈ 8.11 µg/mL)	> 100	> 100	32.4 ± 0.7	25 (≈ 8.11 µg/mL)	
COc1cc(O)c2c(=O)c(C3CC(O)C(=O)O3)c(C)oc2c1 (centres unmarked) [Compound 1, 5-hydroxy-3-((3’R, 5’S)-3’-hydroxy-2’-oxotetrahydrofuran-5’-yl)-7-methoxy-2-methyl-4H-chromen-4-one]	> 100	> 100	> 100	> 100	> 100	> 100	38.6 ± 0.2	50 (≈ 15.3 µg/mL)	47.2 ± 5.5
CC1(C)S[C@@H]2[C@H](NC(=O)[C@H](N)c3ccccc3)C(=O)N2[C@H]1C(=O)O [Ampicillin, reference compound]	0.25 (≈ 0.0874 µg/mL)	0.13 (≈ 0.0454 µg/mL)	0.25 (≈ 0.0874 µg/mL)		0.25 (≈ 0.0874 µg/mL)	0.25 (≈ 0.0874 µg/mL)			
COc1cc(OC)c2c(=O)c(CO)c(C)oc2c1 [Compound 2, 3-(hydroxymethyl)-5,7-dimethoxy-2-methyl-4H-chromen-4-one]	> 100	> 100	> 100	> 100	> 100	> 100	33.7 ± 0.4	100 (≈ 25 µg/mL)	
CC[C@@H](C)[C@H]1C=C[C@H]2[C@H](OC(=O)C/C(C)=C\C(=O)O)[C@H](O)C[C@@H](C)[C@@H]2[C@@]1(C)C(=O)CCO [Compound 10, tandyukisin C]	> 100	> 100	> 100	50 (≈ 22.5 µg/mL)	> 100	> 100	50.9 ± 0.5	25 (≈ 11.3 µg/mL)	
CC(=O)N1CCN(c2ccc(OCC3COC(Cn4ccnc4)(c4ccc(Cl)cc4Cl)O3)cc2)CC1 (centres unmarked) [Ketoconazole, reference compound]				1.56 (≈ 0.829 µg/mL)				0.13 (≈ 0.0691 µg/mL)	
